How the values were obtained:
Assay type in all cases: cell-based, human
[1] = tested on: HCT116 cells; assay: Cell-in-cell structures (cellular cannibalism) by confocal microscopy of CMFDA/CMTMR-labelled cocultures; conditions: for generation of cell-in-cell structures after supplementation with nucleotide: ATP or UTP supplementation, ROCK-dependent; for generation of cell-in-cell structures after TP53 inactivation in presence of inhibitor: TP53 inactivated by PFT-α, knockdown or knockout, 20 μM Y27632 or 100 μM z-VAD
Protocol: FIG. 1. Identification of TP53 as repressor of cellular cannibalism. (A) Schematic representation of experimental procedure used to evaluate the ability to tumor suppressive depletion to enhance cell in cell internalization. (B) Frequencies of cell-in-cell structures induced by depletion of tumor suppressive proteins in HCT116. After 48 hours of transfection indicated siRNA, colorectal HCT116 cells were stained with CMTMR and CMFDA cell trachers, mixed and cultured during 24 hours. Quantification of cell-in-cell structures induced by depletions of tumor suppressor proteins was realized by confocal microscopy. The frequencies of cell-in-cell structures were determined for at least 300 cells in 3 independent experiments (mean+/−s.e.m, p<0.001). (C) Detection of cell-in-cell structures induced by depletion of TP53, as visualized by confocal microscopy. […] Representative micrographs of xy (scale bar, 5 μm), xz (scale bar, 4 μm) and yz (scale bar, 1 μm) optical sections are shown. Images are representative of at least four independent experiments. (D) Representative micrographs of cell-in-cell structures showing that after depletion of TP53 by two specific siRNAs, (red) CMTR labeled HCT116 cells internalized (red) CMTR labeled HCT116 cells (noted R(R)) or (green) CMFDA labeled HCT116 cells (noted R(G)), and (green) CMFDA labeled HCT116 cells engulfed (red) CMTR labeled HCT116 cells (noted G(R)) or (green) CMFDA labeled HCT116 cells (noted G(G)) (scale, 5 μm). (E) Frequencies of cell-in-cell structures showing R(R), R(G), G(R) or G(G) cell internalization detected after depletion of TP53 by two distinct siRNAs (as compare to control). The frequencies of cell-in-cell structures were determined for at least 300 cells in 3 independent experiments (mean+/−s.e.m, p<0.001). (F) Cell-in-cell structures induced by 10 μM PFT-α, TP53 knockdown, or TP53 knockout in HCT116. Cell-in-cell structures were identified by b-catenin (white), CMFDA (green) and CMTMR (red) staining of internalizing HCT116 cells. Images are representative of at least four independent experiments (scale bar in a, 5 μm and scale bar in b 1 μm). (G) Frequencies of cell-in-cell structures induced by 10 μM PFT-α, TP53 knockdown, or TP53 knockout in HCT116 in presence or in absence of 20 μM of ROCK inhibitor (Y27632) or 100 μM of pan-caspase inhibitor (z-VAD). The frequencies of cell-in-cell structures were determined for at least 300 cells in 3 independent experiments (mean+/−s.e.m, p<0.001). (H) Detection of cell-in-cell structures in TP53 depleted human diploid fibroblasts strain WI38, as visualized by confocal microscopy. […] Representative micrographs of xy (scale bar, 5 μm), xz (scale bar, 4 μm) and yz (scale bar, 1 μm) optical sections are shown. Images are representative of at least four independent experiments. (1) Frequencies of cell-in-cell structures induced by depletion of TP53 in human diploid fibroblasts strain WI38. The frequencies of cell-in-cell structures were determined for at least 300 cells in 3 independent experiments (mean+/−s.e.m, p<0.001).
After inactivation of TP53 or Δ133TP53, primary human fibroblasts, primary human keratinocytes, colorectal carcinoma Tp53^+/+ HCT116 cells and pancreatic PANC813 cells were incubated during 24 hours in presence or in absence of indicated concentrations of the pharmacological inhibitor of purinergic P2Y2 receptor Kaempferol (Sigma), the pharmacological inhibitor of ROCK Y27632 (Sigma) or the pan-caspase inhibitor zVAD-fmk (100 uM, BD Biosciences), ATP, UTP and soluble apyrase used in indicated experiments were obtained from Sigma.
After 48 hours of transfection with specific indicated siRNA, cells were stained with 10 μM of 5-chloromethylfluorescein diacetate (Cell Tracker Green CMFDA, Invitrogen) or with 10 μM of 5-(and-6)-(((4-Chloromethyl)Benzoyl)Amino)Tetramethylrhodamine (CMTMR, Invitrogen) and cocultured for indicated time. […]

[2] = tested on: HCT116 cells; assay: Release of ATP by ATP-dependent bioluminescence (Enliten ATP assay); conditions: HCT116 treated with 10 μM CDDP
Protocol: FIG. 11. Extracellular ATP and purinergic receptor P2Y2 participate in cellular cannibalism. (A.) Detection of cellular cannibalism after cis-platinium (CDDP) or γ-irradiation (IR) treatment. After 24 hours treatment with 10 μM CDDP or irradiation (IR) with 4 grays, half cell population of colon carcinoma HCT116 cells were stained with green CMFDA cell tracker or with red CMTMR cell tracker and analyzed for cellular cannibalism by confocal microscopy after 24 hours of coculture in presence or in absence of 20 μM of ROCK inhibitor (YI27632) or 100 μM of pan-caspase inhibitor (zVAD). The frequencies of cannibal cells were determined for at least 300 cells in 3 independent experiments (mean+/−s.e.m, *p<0.001). (B-D) Detection of ATP release after stimulation with senescent-induced stresses. Release of ATP on HCT116 cells treated with 10 μM CDDP (B) or 4 gray γ-irradiation (IR) (B) Of depleted for p53 (C) or Δ133p53 (C) was determined 2 hours after the beginning of coculture using ATP-dependent bioluminescence in 3 independent experiments, (D) Effect of ROCK inhibitor on ATP release detected after p53 inactivation. Release of ATP was detected as previously described in presence or in absence of 20 μM of Y27632 (mean+/−s.e.m, *p<0.001). […] The frequencies of cell-in-cell structures were determined for at least 300 cells in 3 independent experiments (mean+/−s.e.m, *p<0.001). […]

[3] = tested on: P2Y2 purinergic receptors; assay: P2Y2 expression by immunoblot; conditions: HCT116 treated with 10 μM CDDP
[4] = tested on: caspase-3; assay: Cleavage of caspase-3 by immunoblot; set-up: dose or concentration left out as unconfirmed; conditions: cisplatin, positive control
Protocol: FIG. 7. Effects of TP53 inactivation on cellular cannibalism. (A) Detection of cell-in-cell structures induced by depletion of TP53, as visualized by confocal microscopy. […] Images are representative of at least four independent experiments. (B) Detection of cell-in-cell structures induced by depletion of TP53 by light microscopy. (C) Time-lapse imaging of cellular cannibalism detected after depletion of TP53 on HCT116 cells. After 48 hours of transfection with siRNA against TP53, cells were stained as previously described with CMFDA and CMTMR cell trackers and cocultured under time-lapse confocal videomicroscopy. Indicated numbers represent hours and minutes. […] After 48 hours of TP53 knockdown, cleavage of caspase-3 was analyzed by immunoblot. […] Mitotic events and cellular cannibalism were detected and recorded during approximately fifteen hours. […] ROCK activity was determined by detecting the phosphorylation of myosin light chain 2 on serine 19 (MLC2S19*). […] TP53 knocked down, or TP53 knocked out HCT116 cells were analyzed for MLC2S19*, MLC2 or TP53 by immunoblot. […] Tp53^−/+ and Tp53^−/− HCT116 cells are fixed and analyzed by electron microscopy. […] HCT116 cells were transfected with specific siRNAs for TP53 during 48 hours and expression of TP53 (H) or MLCS19* (I) were determined by immunoblots. […]

## Nc1ncnc2c1ncn2C1OC(CO[P@SP3](=O)(O)O[P@SP3](=O)(O)O[P@SP3](=O)(O)O)C(O)C1O (stereo not drawn) [ATP, Adenosine-5′-triphosphate]
[1]; HCT116
  generation of cell-in-cell structures after supplementation with nucleotide: strongly enhanced the ROCK-dependent generation of cell-in-cell structures

## O=c1ccn([C@@H]2O[C@H](COP(=O)(O)OP(=O)(O)OP(=O)(O)O)[C@@H](O)[C@H]2O)c(=O)[nH]1 [UTP]
[1]; HCT116
  generation of cell-in-cell structures after supplementation with nucleotide: strongly enhanced the ROCK-dependent generation of cell-in-cell structures

## C[C@@H](N)[C@H]1CC[C@H](C(=O)Nc2ccncc2)CC1 [Y26732]
[1]
  generation of cell-in-cell structures after TP53 inactivation in presence of inhibitor: prevented the generation of cell-in-cell structures

## N.N.[Cl][Pt][Cl] [cisplatin]
[2]
  release of ATP: released ATP shortly after treatments
[3]
  expression of the P2Y2 purinergic receptors: enhanced the expression of the P2Y2 purinergic receptors
[4]
  cleavage of caspase-3: intense cleavage of caspase-3

## Cc1ccc(C(=O)Cn2c3c(sc2=N)CCCC3)cc1 [pifithrin-α]
[1]; HCT116, 10 μM PFT-α, 24 hours coculture
  cell-in-cell structures induced by pharmacological inactivation of TP53: induced cell-in-cell structures

## Z-VAD-fmk
[1]
  generation of cell-in-cell structures after TP53 inactivation in presence of inhibitor: not affected

## apyrase
[1]; HCT116, different concentrations of apyrase
  cellular internalization induced by the depletion of TP53 or Δ133TP53: reduced cellular internalization

From patent US10969380B2, “Simultaneous detection of cannibalism and senescence as prognostic marker for cancer” (Institut Gustave-Roussy, priority 2012, dated 2021)
